From ChEMBL document CHEMBL1201862, “PubChem BioAssay data set” (2004)
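Interpolation was linear, between the two tested concentrations surrounding the appropriate level; five concentrations were tested over 48 hours in 96-well plates. At the GI50, growth is halved.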 The source made the active and inactive calls. No stated cut-off is given here; in the data, active = GI50 up to about 1.1 µM and inactive = higher.

How the values were obtained:
Experiment in all cases: inhibition of tumour cell growth, NCI panel, 48 h
HCT-15 = test system: HCT-15
M19-MEL = test system: M19-MEL
M14 = test system: M14
U-251 = test system: U-251
SW-620 = test system: SW-620
OVCAR-5 = test system: OVCAR-5
TK-10 = test system: TK-10
HT-29 = test system: HT-29
KM12 = test system: KM12
SF-539 = test system: SF-539
HCT-116 = test system: HCT-116
RPMI-8226 = test system: RPMI-8226
HCC 2998 = test system: HCC 2998
SK-MEL-5 = test system: SK-MEL-5
786-0 = test system: 786-0
LOX IMVI = test system: LOX IMVI
SN12C = test system: SN12C
OVCAR-3 = test system: OVCAR-3
UACC-257 = test system: UACC-257

Structure (SMILES) | GI50 (HCT-15) [µM] | GI50 (M19-MEL) | GI50 (M14) | GI50 (U-251) | GI50 (SW-620) | GI50 (OVCAR-5) | GI50 (TK-10) | GI50 (HT-29) | GI50 (KM12) | GI50 (SF-539) | GI50 (HCT-116) | GI50 (RPMI-8226) | GI50 (HCC 2998) | GI50 (SK-MEL-5) | GI50 (786-0) | GI50 (LOX IMVI) | GI50 (SN12C) | GI50 (OVCAR-3) | GI50 (UACC-257)
N#CC(=C1C=CC(=NO)C=C1)c1ccc(Cl)cc1 | 13.7 | 15 µM (inactive) | 16.4 µM (inactive) | 13.6 µM (inactive) | 7.21 µM (inactive) | 11.9 µM (inactive) | 24.7 µM (inactive) | 5.56 µM (inactive) | 1.69 µM (inactive) | 7.33 µM (inactive) | 7.52 µM (inactive) | 2.6 µM (inactive) | 17.5 µM (inactive) | 7.5 µM (inactive) | 2.29 µM (inactive) | 3.22 µM (inactive) | 16.5 µM (inactive) | 3.52 µM (inactive) | –
CC(=O)O[C@]12CCCCC1C1(O)C(O)CCCCC12 (stereo partly specified) | > 100 | > 100 µM (inactive) | > 100 µM (inactive) | > 100 µM (inactive) | > 100 µM (inactive) | – | > 100 µM (inactive) | > 100 µM (inactive) | > 100 µM (inactive) | – | > 100 µM (inactive) | > 100 µM (inactive) | – | > 100 µM (inactive) | > 100 µM (inactive) | > 100 µM (inactive) | > 100 µM (inactive) | – | > 100 µM (inactive)
O=C1CCC[C@]2(CCCC(=O)N2)C1 | > 100 | > 100 µM (inactive) | > 100 µM (inactive) | > 100 µM (inactive) | > 100 µM (inactive) | > 100 µM (inactive) | > 100 µM (inactive) | > 100 µM (inactive) | > 100 µM (inactive) | > 100 µM (inactive) | > 100 µM (inactive) | > 100 µM (inactive) | > 100 µM (inactive) | > 100 µM (inactive) | > 100 µM (inactive) | > 100 µM (inactive) | > 100 µM (inactive) | > 100 µM (inactive) | > 100 µM (inactive)
C=C(COC(C)=O)CC(OC(C)=O)c1ccccc1 (stereo unspecified) | > 100 | > 100 µM (inactive) | > 100 µM (inactive) | > 100 µM (inactive) | > 100 µM (inactive) | > 100 µM (inactive) | > 100 µM (inactive) | > 100 µM (inactive) | > 100 µM (inactive) | > 100 µM (inactive) | > 100 µM (inactive) | > 100 µM (inactive) | > 100 µM (inactive) | > 100 µM (inactive) | > 100 µM (inactive) | > 100 µM (inactive) | > 100 µM (inactive) | > 100 µM (inactive) | –
COc1cc(/C=N/N=C(\N)NO)c(Cl)cc1O | 46.5 | 26.6 µM (inactive) | – | > 100 µM (inactive) | 77.8 µM (inactive) | 46.7 µM (inactive) | – | 44.5 µM (inactive) | 45.3 µM (inactive) | 81.3 µM (inactive) | 38.6 µM (inactive) | > 100 µM (inactive) | 61.5 µM (inactive) | 51.5 µM (inactive) | 46.6 µM (inactive) | 32.7 µM (inactive) | 58.2 µM (inactive) | – | > 100 µM (inactive)
COc1cc(C2C(Cl)C(=O)N2n2cnc3ccccc3c2=O)ccc1O (stereo unspecified) | 87.3 | > 100 µM (inactive) | > 100 µM (inactive) | 73.1 µM (inactive) | > 100 µM (inactive) | > 100 µM (inactive) | > 100 µM (inactive) | > 100 µM (inactive) | > 100 µM (inactive) | – | > 100 µM (inactive) | 60 µM (inactive) | > 100 µM (inactive) | > 100 µM (inactive) | > 100 µM (inactive) | > 100 µM (inactive) | 89.5 µM (inactive) | 85.1 µM (inactive) | 25.4 µM (inactive)
CC1=C(N2CC2)C(=O)c2nc3n(c2C1=O)CCC3O (stereo unspecified) | 13.6 | 1.54 µM (inactive) | 1.32 µM (inactive) | 0.157 µM (active) | 0.153 µM (active) | 0.423 µM (active) | 0.09 µM (active) | 0.973 µM (active) | 0.233 µM (active) | 0.254 µM (active) | 0.193 µM (active) | 0.472 µM (active) | 0.151 µM (active) | 0.0216 µM (active) | 0.179 µM (active) | 0.619 µM (active) | 0.508 µM (active) | 0.275 µM (active) | 0.226 µM (active)
Cc1cc(C)cc(NC(=O)CCC(=O)C2CCC/C2=N\NC(=O)C(=O)NN)c1 (stereo unspecified) | > 100 | > 100 µM (inactive) | > 100 µM (inactive) | > 100 µM (inactive) | > 100 µM (inactive) | > 100 µM (inactive) | > 100 µM (inactive) | > 100 µM (inactive) | > 100 µM (inactive) | > 100 µM (inactive) | > 100 µM (inactive) | > 100 µM (inactive) | > 100 µM (inactive) | > 100 µM (inactive) | > 100 µM (inactive) | > 100 µM (inactive) | > 100 µM (inactive) | > 100 µM (inactive) | > 100 µM (inactive)
COc1cc2c3cc1Oc1c(OC)c(OC)cc4c1[C@@H](Cc1ccc(O)c(c1)Oc1ccc(cc1)C[C@@H]3N(C)CC2)N(C)CC4.c1ccccc1 | 12.3 | 13.4 µM (inactive) | 4.61 µM (inactive) | 10.1 µM (inactive) | 16.2 µM (inactive) | 30.6 µM (inactive) | 17.8 µM (inactive) | 10.7 µM (inactive) | 10.9 µM (inactive) | 3.71 µM (inactive) | 9.16 µM (inactive) | 16.3 µM (inactive) | 7.93 µM (inactive) | 3.89 µM (inactive) | 12.8 µM (inactive) | 17.1 µM (inactive) | 18.7 µM (inactive) | 14.4 µM (inactive) | 3.36 µM (inactive)
CC1=C(/C=C/C2=CC(=C\C(=O)O)/CC(C3=C(C)CCCC3(C)C)C2)C(C)(C)CCC1 (stereo unspecified) | – | 15.3 µM (inactive) | 14.8 µM (inactive) | 11.1 µM (inactive) | 15 µM (inactive) | 16.4 µM (inactive) | 13.5 µM (inactive) | 13.6 µM (inactive) | 11.9 µM (inactive) | 16.8 µM (inactive) | 15 µM (inactive) | 5.36 µM (inactive) | – | 14.8 µM (inactive) | 14.8 µM (inactive) | 13.7 µM (inactive) | 15.6 µM (inactive) | 14 µM (inactive) | 15.6 µM (inactive)
Cc1ccc(S(=O)(=O)c2ccc(C)cc2[N+](=O)[O-])c([N+](=O)[O-])c1 | > 100 | > 100 µM (inactive) | > 100 µM (inactive) | > 100 µM (inactive) | > 100 µM (inactive) | > 100 µM (inactive) | > 100 µM (inactive) | > 100 µM (inactive) | > 100 µM (inactive) | > 100 µM (inactive) | > 100 µM (inactive) | > 100 µM (inactive) | > 100 µM (inactive) | > 100 µM (inactive) | > 100 µM (inactive) | > 100 µM (inactive) | > 100 µM (inactive) | > 100 µM (inactive) | –
O=C1CC(CC(=O)C2CCCCC2=O)C(=O)N1 (stereo unspecified) | – | > 100 µM (inactive) | > 100 µM (inactive) | > 100 µM (inactive) | > 100 µM (inactive) | > 100 µM (inactive) | > 100 µM (inactive) | > 100 µM (inactive) | > 100 µM (inactive) | > 100 µM (inactive) | > 100 µM (inactive) | > 100 µM (inactive) | > 100 µM (inactive) | – | > 100 µM (inactive) | > 100 µM (inactive) | > 100 µM (inactive) | > 100 µM (inactive) | > 100 µM (inactive)
N#CC1=C(O)NC(O)=C(C#N)C1c1ccc(C2C(C#N)=C(O)NC(O)=C2C#N)cc1 | 50.8 | 67.8 µM (inactive) | > 100 µM (inactive) | > 100 µM (inactive) | > 100 µM (inactive) | – | > 100 µM (inactive) | > 100 µM (inactive) | > 100 µM (inactive) | > 100 µM (inactive) | > 100 µM (inactive) | > 100 µM (inactive) | > 100 µM (inactive) | > 100 µM (inactive) | > 100 µM (inactive) | 35.2 µM (inactive) | 46.5 µM (inactive) | > 100 µM (inactive) | > 100 µM (inactive)
O=C1NC2(CCCC2)C2CCCCC12O (stereo unspecified) | > 100 | > 100 µM (inactive) | > 100 µM (inactive) | > 100 µM (inactive) | > 100 µM (inactive) | > 100 µM (inactive) | > 100 µM (inactive) | > 100 µM (inactive) | > 100 µM (inactive) | > 100 µM (inactive) | > 100 µM (inactive) | > 100 µM (inactive) | – | > 100 µM (inactive) | > 100 µM (inactive) | > 100 µM (inactive) | > 100 µM (inactive) | > 100 µM (inactive) | > 100 µM (inactive)
COc1ccc(-c2oc3c(OC)c(OC)c(OC)c(O)c3c(=O)c2OC)cc1O | 0.35 | 0.346 µM (active) | 0.0592 µM (active) | 0.242 µM (active) | 0.038 µM (active) | 5.4 µM (inactive) | 2.42 µM (inactive) | 8.87 µM (inactive) | 0.556 µM (active) | 0.0327 µM (active) | 0.0783 µM (active) | 0.121 µM (active) | 2.11 µM (inactive) | 0.113 µM (active) | 0.446 µM (active) | 0.0935 µM (active) | 0.0641 µM (active) | 0.0632 µM (active) | 0.0583 µM (active)
O=C1NC(=S)NC(=O)C1=Cc1ccc([N+](=O)[O-])o1 | 17 | 19.6 µM (inactive) | 15.7 µM (inactive) | > 100 µM (inactive) | 23 µM (inactive) | 20.3 µM (inactive) | 61 µM (inactive) | 23.2 µM (inactive) | 46.6 µM (inactive) | 22.9 µM (inactive) | 15 µM (inactive) | 20.3 µM (inactive) | 60.7 µM (inactive) | 23.4 µM (inactive) | 19.3 µM (inactive) | 17.6 µM (inactive) | 16.3 µM (inactive) | – | 44.2 µM (inactive)
